Test results taken from PubChem BioAssay (NCI).
Where “and” joins values, the source holds several entries; their conditions need not be identical. Equal entries are not always repeated.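 Where inhibition never reached the appropriate level, the endpoint shown equals the highest concentration tested. Otherwise, values were interpolated linearly from a five-concentration, 48-hour dose response in 96-well plates. At the GI50, growth is halved. The concentration for full growth arrest is given as TGI.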

Experiments:
Assay in all cases: growth of human tumour cells (NCI), 48 h
[1] = tested on: IGROV1 ovarian
[2] = tested on: OVCAR-5 ovarian
[3] = tested on: UACC-257 melanoma
[4] = tested on: UACC-62 melanoma
[5] = tested on: SF-295 CNS
[6] = tested on: A498 renal
[7] = tested on: CAKI-1 renal
[8] = tested on: NCI-H23 lung
[9] = tested on: SF-539 CNS
[10] = tested on: UO-31 renal

SMILES	GI50 [1]	TGI [1]	GI50 [2]	TGI [2]	GI50 [3]	TGI [3]	GI50 [4]	TGI [4]	GI50 [5]	TGI [5]	GI50 [6]	TGI [6]	GI50 [7]	TGI [7]	GI50 [8]	TGI [8]	GI50 [9]	TGI [9]	GI50 [10]	TGI [10]
COc1ncc(-c2ccc3nccc(-c4ccnnc4)c3c2)cc1NS(=O)(=O)c1ccc(F)cc1F	< 0.01 µM	0.00752 µM and < 0.01 µM	0.00728 µM and < 0.01 µM	> 10 µM and 2.76 µM	0.00627 µM and < 0.01 µM	0.378 µM and 0.0615 µM	0.00217 µM and < 0.01 µM	0.019 µM and 0.0263 µM	0.00537 µM and < 0.01 µM	0.0595 µM and 0.0299 µM	0.0015 µM	0.00826 µM	0.00521 µM and < 0.01 µM	0.746 µM and 1.7 µM	0.029 µM and 0.0174 µM	> 8.67 µM and 6.46 µM	0.00746 µM and < 0.01 µM	0.0587 µM and 0.0468 µM	0.00213 µM and < 0.01 µM	–
CC(=O)[C@@]1(O)CC[C@H]2[C@@H]3C[C@H](C)C4=CC(=O)CC[C@]4(C)[C@H]3[C@@H](O)C[C@@]21C	–	> 100 µM	–	> 100 µM	–	> 100 µM	–	> 100 µM	–	> 100 µM	–	> 100 µM	–	> 100 µM	–	> 100 µM	–	> 100 µM	–	> 100 µM
CC(C)(C)c1nn(-c2ccccc2)c2c1C(=O)CSC(c1ccccc1Cl)N2 (stereo not drawn)	3.52 µM	43 µM	3.18 µM	13.1 µM	2.78 µM	14.7 µM	0.775 µM	15 µM	0.746 µM	10.5 µM	0.353 µM	3.78 µM	1.24 µM	22.2 µM	2.39 µM	17.9 µM	2.36 µM	10.1 µM	3.03 µM	19.1 µM
CCC(CO)Nc1nc(NCc2ccccc2O)c2ncn(C(C)C)c2n1 (stereo not drawn)	1.81 µM	5.64 µM	3.72 µM	> 100 µM	32.2 µM	> 100 µM	2.3 µM	12.5 µM	2.95 µM	8.03 µM	3.66 µM	18 µM	15.6 µM	63.4 µM	2.98 µM	15.7 µM	3.72 µM	28.4 µM	0.0777 µM	4.27 µM
COc1ccc(-n2nnnc2-c2c[nH]c3c(F)cc(F)cc23)cc1	> 100 µM	> 100 µM	> 100 µM	> 100 µM	> 100 µM	> 100 µM	> 100 µM	> 100 µM	24 µM	59.6 µM	36.5 µM	> 100 µM	> 100 µM	> 100 µM	> 100 µM	> 100 µM	52.8 µM	> 100 µM	54 µM	> 100 µM
CCCCCCCCCCCCCC(=O)CC(=O)c1c(O)cccc1O	–	> 100 µM	–	> 100 µM	–	85.3 µM	–	> 100 µM	–	> 100 µM	–	> 100 µM	–	76.1 µM	–	84.2 µM	–	> 100 µM	–	> 100 µM
COC(=O)c1c2c(c(C)[n+]([O-])c1C)C(=O)C=C(NCc1ccc(F)c(Cl)c1)C2=O	0.421 µM	1.91 µM	1.16 µM	2.69 µM	0.171 µM	0.64 µM	0.0325 µM	0.662 µM	0.231 µM	1.48 µM	0.437 µM	2.05 µM	0.0559 µM	1.9 µM	0.412 µM	2.11 µM	0.604 µM	1.71 µM	1.05 µM	2.37 µM
Clc1cc(Cc2cc(Cl)c(Cl)c3c2OCOC3)c2c(c1Cl)COCO2	–	> 100 µM	–	> 100 µM	–	> 100 µM	–	> 100 µM	–	78.8 µM	–	80.4 µM	–	49.7 µM	–	> 100 µM	–	52.3 µM	–	> 100 µM
C=CC(=O)N1CCN(c2nc(=O)n(-c3c(C)ccnc3C(C)C)c3nc(-c4c(O)cccc4F)c(F)cc23)[C@@H](C)C1	> 44.7 µM	> 73.9 µM	62.9 µM	> 100 µM	> 56.2 µM	> 100 µM	28.4 µM	> 73.6 µM	44.4 µM	> 100 µM	11.8 µM	> 54.1 µM	40.3 µM	> 100 µM	–	> 47.2 µM	23.3 µM	64.2 µM	> 62.3 µM	> 100 µM
COc1cc(C)c(Cl)cc1C1=NN(c2ccc(S(N)(=O)=O)cc2)C(/C=C/c2ccccc2)C1 (stereo not drawn)	4.15 µM	43.9 µM	4.04 µM	57.3 µM	3.58 µM	20.5 µM	3.77 µM	19.4 µM	3.17 µM	13.6 µM	2.67 µM	5.71 µM	2.7 µM	19.1 µM	2.02 µM	7.73 µM	4.26 µM	17 µM	2.54 µM	12.6 µM
O=C(Nc1cccc(Cl)c1)c1ccc(NC2=C(Cl)C(=O)N(Cc3ccccc3)C2=O)cc1	9.95 µM	> 62.6 µM	24.8 µM	> 61.6 µM	21.3 µM	49.7 µM	11.6 µM	25.4 µM	17.7 µM	56.9 µM	34.4 µM	96.2 µM	14.7 µM	50.8 µM	13.6 µM	27 µM	20.4 µM	36.3 µM	> 26.3 µM	> 100 µM
